Data set [1] addresses Mushroom TYR (EC 1.14.18.1) (Agaricus bisporus, UniProt C7FF04). In words: biochemical. As to conditions: IC50 value ± SD.
Data set [2] has as its target mushroom TYR (Agaricus bisporus, UniProt C7FF04). In words: biochemical. Format: binding.
The subject of data set [3] is B16F10 cells. In words: Cytotoxicity assay. The class given is cell-based. The following applies: 72 h.
Data set [4] deals with A375 cells. The data set is described as follows: Cytotoxicity assay. As to conditions: 72 h. Format: cell-based.
Data set [5] concerns B16F10 cells. The data set is described as follows: Intracellular melanogenesis inhibition assay, B16F10. Format: cell-based. As to conditions: melanotan II 100 nM, 72 h; for order of inhibitory effectiveness (macroscopic colour): 100 μM; for inhibitory effect on melanin synthesis: various concentrations.
Data set [6] deals with A375 cells. In words: Intracellular melanogenesis inhibition assay, A375. The class given is cell-based. As to conditions: melanotan II 100 nM, 72 h, all tested concentrations.
In data set [7] the test system is 3D melanin skin model. The data set is described as follows: 3D human skin model assay. The class given is cell-based. As to conditions: 100 µM, six doses, UVB 50 mJ/cm^2 for seven days, n = 6.
The nature of data set [8]: Plasma stability study. The class given is in vitro ADME. As to conditions: human.
The conditions of data set [9]: human, microsomes.
Data set [10] can be described thus: in vitro. The following applies: human, microsomes.
The mark [11] stands for this setting: L-dopa, substrate L-dopa (diphenolase), n = 3, screening of de novo generated compounds (Table 1).
Setting [12] is: L-tyrosine, substrate L-tyrosine (monophenolase), n = 3, screening of de novo generated compounds (Table 1).

These results are taken from article PMC13539321 (Journal of Advanced Research, 2025).

Chain of Mushroom TYR (EC 1.14.18.1) (C7FF04 1-392 limits assumed): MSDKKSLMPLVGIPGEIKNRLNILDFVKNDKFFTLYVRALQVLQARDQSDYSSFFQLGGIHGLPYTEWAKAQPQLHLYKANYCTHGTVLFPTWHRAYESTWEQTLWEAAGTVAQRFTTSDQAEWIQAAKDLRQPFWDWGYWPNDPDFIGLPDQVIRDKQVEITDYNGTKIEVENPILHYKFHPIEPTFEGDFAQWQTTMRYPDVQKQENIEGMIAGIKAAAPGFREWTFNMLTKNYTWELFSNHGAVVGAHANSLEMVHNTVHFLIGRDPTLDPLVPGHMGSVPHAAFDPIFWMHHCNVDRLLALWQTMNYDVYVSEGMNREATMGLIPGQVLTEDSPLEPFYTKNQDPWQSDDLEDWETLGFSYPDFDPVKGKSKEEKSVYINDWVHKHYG
Chain of mushroom TYR (C7FF04 1-392 limits assumed): as above

What is called IC50 is the concentration that inhibits the measured activity by half. As a reminder, the Kd is a measure of binding affinity in units of concentration. High values mean a looser complex, low ones a tighter complex. As to `O=C(CCc1cccc(O)c1)N1CCN(Cc2ccc(F)cc2)CC1` [Compound V, 1-(4-(4-fluorobenzyl)piperazin-1-yl)-3-(3-hydroxyphenyl)propan-1-one], the IC50 in data set [1] (L-dopa) was 41.8 ± 3 µM; in [1] (setting [11]) it was 18.5 ± 2.4 µM; in data set [1] (L-tyrosine), 11.9 ± 0.5 µM; in [1] (setting [12]), 9.6 ± 1.1 µM. The same compound displayed a Kd in [2] of 24.2 ± 20.3 µM. The results for the cytotoxicity result in data set [3] (200 μM), in [4] (100 μM) and in data set [4] (200 μM) were “no cytotoxicity”, “no cytotoxicity” and “weak cytotoxicity”, respectively. Further, the “order of inhibitory effectiveness (macroscopic colour)” value (“order of inhibitory effectiveness” for short) in data set [5] was “compound V-24 > β-arbutin > kojic acid ≈ compound V”. The “inhibitory effect on melanin synthesis” value in [5] is given as “comparable to that of kojic acid”.

As to `COc1cc(C(=O)N[C@@H](Cc2ccccc2)C(N)=O)ccc1O` [Compound I, (S)-N-(1-amino-1-oxo-3-phenylpropan-2-yl)-4-hydroxy-3-methoxybenzamide], the IC50 in [1] (setting [11]) and in [1] (setting [12]) was over 800 µM each time.

One may read the half-life as the time needed for the level to fall by half in the phase considered. High values mean slow decline, low ones rapid decline. Usually fraction remaining stands for what is left of the initial amount, in per cent. Low values mean a greater loss, high ones greater stability. Regarding `Cc1ccc(CN2CCN(C(=O)/C=C/c3ccc(O)cc3O)CC2)cc1` [Compound V-24, (E)-3-(2,4-dihydroxyphenyl)-1-(4-(4-methylbenzyl)piperazin-1-yl)prop-2-en-1-one], the IC50 in data set [1] (L-dopa) turned out to be 0.018 ± 0.0007 µM; in data set [1] (L-tyrosine), 0.02 ± 0.001 µM. Moreover, in data set [2], the Kd was determined as 13.8 ± 4.2 µM. In addition, the cytotoxicity result in data set [3] (100 μM) is reported as “no cytotoxicity”; in data set [4] (100 μM), “no cytotoxicity”; in data set [4] (200 μM), “weak cytotoxicity”. Further, the “order of inhibitory effectiveness” value in data set [5] was “compound V-24 > β-arbutin > kojic acid ≈ compound V”. The results for the “inhibitory effect on melanin synthesis” value in data set [5] and in [6] were “akin to that of β-arbutin” and “most pronounced inhibitory effect”, respectively. This compound also came in with a L value in data set [7] of 83.38 ± 0.40. Further, the half-life at 1 µM was found to be 8.74 h in data set [8] and 0.58 h in data set [10]. In addition, in [8], the share remaining at 2 h, 1 µM is 89.1%. The compound also had an Eh in data set [9] of 69.00%. Moreover, in data set [10], the share remaining at 0.75 h, 1 µM turned out to be 42%.

In the case of `O=C(Oc1ccc(N2CCNCC2)cc1)c1cc(O)nc2ccccc12` [XVII, 4-(piperazin-1-yl)phenyl 2-hydroxyquinoline-4-carboxylate], the IC50 is 303 ± 47.6 µM in [1] (setting [11]) and 164 ± 19.8 µM in data set [1] (setting [12]).

`O=C(CCc1cccc(O)c1)N1CCN(Cc2ccccc2F)CC1` [Compound V-1, 1-(4-(2-fluorobenzyl)piperazin-1-yl)-3-(3-hydroxyphenyl)propan-1-one]: the values for the IC50 in data set [1] (L-dopa) and in [1] (L-tyrosine) were over 800 µM and 204 ± 3.9 µM, respectively.

Turning to `O=C(Oc1ccc(N2CCNCC2)cc1)c1cnc2ccccc2c1` [XVI, 4-(piperazin-1-yl)phenyl quinoline-3-carboxylate], the IC50 in data set [1] (setting [11]) was found to be 138 ± 5.1 µM; in data set [1] (setting [12]) it was 16 ± 1.6 µM.

On to `O=C(CCc1cc(O)ccc1O)N1CCN(Cc2ccc(F)cc2)CC1` [Compound V-21, 3-(2,5-dihydroxyphenyl)-1-(4-(4-fluorobenzyl)piperazin-1-yl)propan-1-one], for which the IC50 came out at 21 ± 0.82 µM in [1] (L-dopa) and 8.2 ± 0.4 µM in data set [1] (L-tyrosine).

As for `NC(=O)[C@H](Cc1ccccc1)NC(=O)c1cccc(O)c1` [III, (S)-N-(1-amino-1-oxo-3-phenylpropan-2-yl)-3-hydroxybenzamide], the IC50 in [1] (setting [11]) and in data set [1] (setting [12]) was over 800 µM throughout.

With `NC(=O)[C@H](Cc1ccccc1)NC(=O)CCc1cccc(O)c1` [II, (S)-N-(1-amino-1-oxo-3-phenylpropan-2-yl)-3-(3-hydroxyphenyl)propanamide], the IC50 in [1] (setting [11]) was over 800 µM; in [1] (setting [12]), 423 ± 38.3 µM.

`CCOc1ccc(CN2CCN(C(=O)CCc3ccc(O)cc3O)CC2)cc1` [Compound V-27, 3-(2,4-dihydroxyphenyl)-1-(4-(4-ethoxybenzyl)piperazin-1-yl)propan-1-one]: the values for the IC50 in data set [1] (L-dopa) and in [1] (L-tyrosine) were 0.596 ± 0.026 µM and 0.497 ± 0.07 µM, respectively.

For `O=C(/C=C/c1ccc(O)cc1O)N1CCN(Cc2ccc(F)cc2)CC1` [Compound V-22, (E)-3-(2,4-dihydroxyphenyl)-1-(4-(4-fluorobenzyl)piperazin-1-yl)prop-2-en-1-one], the IC50 in data set [1] (L-dopa) was found to be 0.085 ± 0.016 µM; in data set [1] (L-tyrosine), 0.122 ± 0.008 µM.

Take `O=C(CCc1cccc(O)c1)NC1CCN(Cc2ccccc2)CC1` [IV, N-(1-benzylpiperidin-4-yl)-3-(3-hydroxyphenyl)propanamide]: the half-inhibitory concentration (IC50) in data set [1] (setting [11]) was over 800 µM; in [1] (setting [12]) it was 198 ± 7.6 µM.

In the case of `O=c1cc(CO)occ1O` [kojic acid, reference compound], the cytotoxicity result in data set [3] (200 μM) and in data set [4] (200 μM) was “no cytotoxicity” each time. For the same compound, in data set [5], the “order of inhibitory effectiveness” value was “compound V-24 > β-arbutin > kojic acid ≈ compound V”. Moreover, in [7], the L value was found to be 70.98 ± 0.68.

Regarding `O=C(/C=C/c1cccc(O)c1)N1CCN(Cc2ccc(F)cc2)CC1` [Compound V-5, (E)-1-(4-(4-fluorobenzyl)piperazin-1-yl)-3-(3-hydroxyphenyl)prop-2-en-1-one], the IC50 is over 200 µM in data set [1] (L-dopa) and 148 ± 25.4 µM in data set [1] (L-tyrosine).
